From patent US20240383900A1, “SUBSTITUTED PYRAZOLO [1,5-A]PYRIMIDINE-7-AMINE COMPOUNDS AS CDK INHIBITORS AND THEIR THERAPEUTIC USE” (Carrick Therapeutics Limited, priority 2021, published 2024)
Where two headings read alike, the source gives them in different places.

Columns and labels:
[1] = biological target: Human CDK7/CycH/MAT1 (Homo sapiens (Human), UniProt P50613); assay: Radiometric protein kinase assay (33PanQinase Activity Assay), CDK7; type: biochemical; conditions: ATP 3 μM
Protocol: Additionally for the CDK7 assay: • Human CDK7/CycH/MAT1 (ProQinase, 0366-0360-4—Lot 2). • RBER-CHKtide (ProQinase, 0581-0000-5—Lot 106).
(§1) A radiometric protein kinase assay (^33PanQinase® Activity Assay) was used for measuring the kinase activity of the two protein kinases (CDK12/CDK7). All kinase assays were performed in 96-well FlashPlates™ from PerkinElmer (Boston, MA, USA) in a 50 μL reaction volume.
(§2) The reaction cocktail was pipetted in four steps in the following order: • 20 μL of assay buffer (standard buffer) • 5 μL of ATP solution (in H2O) • 5 μL of test compound (in 10% DMSO) • 10 μL of substrate/10 μL of enzyme solution (premixed)
For the CDK7 assay, a reaction mixture (50 μL) containing the following components was prepared: • 70 mM HEPES-NaOH (pH 7.5); • sodium orthovanadate (3 μM); • PEG-20000 (50 μg/mL); • DTT (1.2 mM); • MgCl2 (3 mM); • MnCl2 (3 mM); • purified human CDK7/CycH/MAT1 (3.3 nM—Lot 02); • RBER-CHKtide substrate (40 μg/mL—Lot 106); • ATP (3 μM); • [γ-33P]-ATP (approx. 8×10^5 cpm per well); and • test compound at the appropriate concentration such that the final concentration of DMSO was […].
(§3) The reaction mixture was incubated at 30° C. for 60 min and then stopped by the addition of 2% (v/v) H3PO4. Plates were aspirated and washed two times with 200 μL 0.9% (w/v) NaCl. Incorporation of ^33Pi was determined with a microplate scintillation count (Microbeta, Wallac).
The residual activities for each concentration and the compound IC50 values were calculated using Quattro Workflow V3.1.1 (Quattro Research GmbH, Munich, Germany). The fitting model for the IC50 determinations was “Sigmoidal response (variable slope)” with parameters “top” fixed at 100% and “bottom” at 0%. The fitting method used was a least-squares fit.

[2] = biological target: Human CDK12 wt/CycK (Homo sapiens (Human), UniProt Q9NYV4); assay: Radiometric protein kinase assay (33PanQinase Activity Assay), CDK12; type: biochemical; conditions: for CDK7/CDK12: ratio of CDK7 IC50 to CDK12 IC50, greater than 1 indicates selectivity for CDK12
Sequence of Human CDK12 wt/CycK (Q9NYV4 whole entry): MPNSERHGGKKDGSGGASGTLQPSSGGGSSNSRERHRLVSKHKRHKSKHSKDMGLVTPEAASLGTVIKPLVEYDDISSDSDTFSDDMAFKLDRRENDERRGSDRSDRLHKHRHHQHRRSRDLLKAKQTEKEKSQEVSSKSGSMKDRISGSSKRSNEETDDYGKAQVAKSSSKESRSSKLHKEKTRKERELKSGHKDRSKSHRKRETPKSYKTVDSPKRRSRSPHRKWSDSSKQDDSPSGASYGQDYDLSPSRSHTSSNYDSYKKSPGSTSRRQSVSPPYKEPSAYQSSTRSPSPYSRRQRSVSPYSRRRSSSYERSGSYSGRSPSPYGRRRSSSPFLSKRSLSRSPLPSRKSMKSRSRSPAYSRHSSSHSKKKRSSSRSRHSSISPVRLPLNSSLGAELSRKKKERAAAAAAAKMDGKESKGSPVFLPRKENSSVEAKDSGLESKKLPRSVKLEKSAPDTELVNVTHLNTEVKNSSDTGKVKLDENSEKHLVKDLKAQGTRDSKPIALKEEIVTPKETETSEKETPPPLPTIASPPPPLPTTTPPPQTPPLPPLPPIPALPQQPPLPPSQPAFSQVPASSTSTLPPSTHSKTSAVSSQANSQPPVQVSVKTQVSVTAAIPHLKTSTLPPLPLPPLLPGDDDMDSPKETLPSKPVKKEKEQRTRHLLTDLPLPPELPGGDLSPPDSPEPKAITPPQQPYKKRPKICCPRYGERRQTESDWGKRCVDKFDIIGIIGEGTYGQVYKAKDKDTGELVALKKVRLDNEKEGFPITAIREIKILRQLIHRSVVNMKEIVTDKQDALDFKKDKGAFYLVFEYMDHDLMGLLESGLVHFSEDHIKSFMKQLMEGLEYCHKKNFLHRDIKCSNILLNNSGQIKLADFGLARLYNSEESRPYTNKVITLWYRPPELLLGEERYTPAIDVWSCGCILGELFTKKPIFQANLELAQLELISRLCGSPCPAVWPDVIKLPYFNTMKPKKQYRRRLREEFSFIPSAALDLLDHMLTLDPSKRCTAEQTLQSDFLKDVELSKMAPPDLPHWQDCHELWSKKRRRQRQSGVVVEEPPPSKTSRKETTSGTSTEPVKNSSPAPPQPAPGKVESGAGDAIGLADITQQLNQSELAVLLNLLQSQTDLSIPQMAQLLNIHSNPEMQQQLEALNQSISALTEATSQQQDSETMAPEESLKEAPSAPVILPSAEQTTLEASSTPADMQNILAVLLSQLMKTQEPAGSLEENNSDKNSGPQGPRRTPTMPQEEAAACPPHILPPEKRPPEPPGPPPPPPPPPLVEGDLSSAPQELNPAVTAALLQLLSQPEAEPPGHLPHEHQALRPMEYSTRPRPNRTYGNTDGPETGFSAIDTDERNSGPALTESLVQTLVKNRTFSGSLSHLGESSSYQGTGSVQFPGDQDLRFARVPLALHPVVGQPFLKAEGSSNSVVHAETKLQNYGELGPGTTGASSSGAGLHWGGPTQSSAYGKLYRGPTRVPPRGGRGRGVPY
Sequence of Human CDK12 wt/CycK (O75909 whole entry partner): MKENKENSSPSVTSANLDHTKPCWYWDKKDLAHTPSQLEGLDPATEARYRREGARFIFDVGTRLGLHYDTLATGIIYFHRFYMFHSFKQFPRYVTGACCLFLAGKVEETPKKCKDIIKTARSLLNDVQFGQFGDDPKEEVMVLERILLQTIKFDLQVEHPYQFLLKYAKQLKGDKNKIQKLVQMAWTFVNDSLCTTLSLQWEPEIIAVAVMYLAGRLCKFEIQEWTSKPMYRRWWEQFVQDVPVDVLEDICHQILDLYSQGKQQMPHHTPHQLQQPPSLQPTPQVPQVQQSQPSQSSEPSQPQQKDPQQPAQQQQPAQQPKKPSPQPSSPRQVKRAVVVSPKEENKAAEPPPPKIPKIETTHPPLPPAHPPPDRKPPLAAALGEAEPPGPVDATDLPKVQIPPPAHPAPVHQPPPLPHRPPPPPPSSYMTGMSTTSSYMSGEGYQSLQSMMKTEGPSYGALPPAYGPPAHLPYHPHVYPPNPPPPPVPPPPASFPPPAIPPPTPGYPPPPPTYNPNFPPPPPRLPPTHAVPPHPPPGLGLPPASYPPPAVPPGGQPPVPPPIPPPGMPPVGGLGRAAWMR
Protocol: as §1, §2, §3
The fitting method used was a least-squares fit.

[3] = system: A673 cells; assay: A673 cytotoxic potency shift in the presence of MLN4924 (cyclin K degrader activity); type: cell-based; conditions: 30 nM MLN4924, 72 hours
Protocol: Inhibition of cell viability by test compounds was assessed in A673 cells (ATCC CRL-1598) and the compound mode of action was attributed to a “molecular-glue”/cyclin K-degradation mechanism by probing for a loss of compound potency in the presence of the NEDD8-activating enzyme inhibitor, MLN4924.
(§4) Cells were plated in 96-well plates at a density of […] viable cells per well in 200 μL fully supplemented growth medium (DMEM+10% heat inactivated foetal bovine serum) and incubated for 24 hours in standard tissue culture conditions. Compounds, including MLN4924, were solubilised in DMSO and then diluted in fully supplemented growth medium at 2× their final assay concentration such that the final DMSO concentration was 0.1%. Growth medium in the assay plates was replaced with 50 μL of growth medium containing 2×MLN4924 (final assay concentration: 30 nM, where tested) or vehicle only and 50 μL of growth medium containing a 2× compound concentration series or vehicle only such that each compound was at 1× final assay concentration in 100 μL.
Cells were then incubated for 72 hours in standard tissue culture conditions before viability was assessed using 50 μL Cell Titer Glo reagent (Promega) per well and luminescence measured on an EnVision plate reader. Data were normalised to vehicle control (100%) and cells treated with 0.1% Triton x-100 for 1 hour before viability measurement (0%; full cell kill). IC50 values were determined using a semi-logistic curve fit with parameters “top” fixed at 100% and “bottom” at or below 0%. Viability curves generated in the presence of MLN4924 were normalised and fixed to controls treated with MLN4924.

[4] = system: A673 cells; assay: Cytotoxicity in A673 cells (Cell Titer Glo viability); type: cell-based; conditions: for Ratio of Biochemical Potency:Cellular Potency: CDK12 IC50 / A673 IC50; for IC50: Homo sapiens
Protocol: as §4
Cells were then incubated for 72 hours in standard tissue culture conditions before viability was assessed using 50 μL Cell Titer Glo reagent (Promega) per well and luminescence measured on an EnVision plate reader. Data were normalised to vehicle control (100%) and cells treated with 0.1% Triton x-100 for 1 hour before viability measurement (0%; full cell kill). […] Viability curves generated in the presence of MLN4924 were normalised and fixed to controls treated with MLN4924.

[5] = ATP 0.3 μM, read-out: CDK12 IC50
[6] = read-out: CKD12 Biochemical Potency IC50
[7] = A673, read-out: Cellular Potency IC50 (nM) (in A673 cells)
[8] = A673 cells, 72 hours, read-out: A673 IC50

Sequence of Human CDK7/CycH/MAT1 (P50613 whole entry): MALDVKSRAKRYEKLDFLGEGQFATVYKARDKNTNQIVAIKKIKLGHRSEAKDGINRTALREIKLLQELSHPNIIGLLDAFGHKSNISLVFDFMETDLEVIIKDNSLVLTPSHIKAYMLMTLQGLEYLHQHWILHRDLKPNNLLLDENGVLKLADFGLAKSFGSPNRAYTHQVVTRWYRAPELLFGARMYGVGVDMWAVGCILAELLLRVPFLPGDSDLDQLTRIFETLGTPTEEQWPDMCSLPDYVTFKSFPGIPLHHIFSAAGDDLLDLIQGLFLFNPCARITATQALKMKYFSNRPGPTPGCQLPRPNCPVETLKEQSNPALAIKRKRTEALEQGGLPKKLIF
Sequence of Human CDK7/CycH/MAT1 (P51946 whole entry partner): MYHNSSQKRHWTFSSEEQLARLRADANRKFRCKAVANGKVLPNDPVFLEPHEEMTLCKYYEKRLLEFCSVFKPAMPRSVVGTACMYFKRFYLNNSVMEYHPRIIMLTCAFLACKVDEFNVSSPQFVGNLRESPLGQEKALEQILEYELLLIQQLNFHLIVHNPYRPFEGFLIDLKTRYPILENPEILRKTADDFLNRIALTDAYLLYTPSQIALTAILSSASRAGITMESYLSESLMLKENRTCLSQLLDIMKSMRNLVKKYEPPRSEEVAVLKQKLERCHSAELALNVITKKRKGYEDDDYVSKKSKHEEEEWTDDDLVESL
Sequence of Human CDK7/CycH/MAT1 (P51948 whole entry partner): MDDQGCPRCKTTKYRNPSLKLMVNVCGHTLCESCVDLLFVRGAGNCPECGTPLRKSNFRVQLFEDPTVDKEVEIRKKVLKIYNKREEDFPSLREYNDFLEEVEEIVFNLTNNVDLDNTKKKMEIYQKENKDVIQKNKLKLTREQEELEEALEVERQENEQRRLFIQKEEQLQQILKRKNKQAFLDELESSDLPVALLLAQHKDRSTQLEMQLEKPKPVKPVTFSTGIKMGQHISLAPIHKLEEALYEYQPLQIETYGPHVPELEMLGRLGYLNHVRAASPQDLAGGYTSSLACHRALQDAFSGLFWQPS

Compound | IC50 [1] | IC50 [2, 5] | CDK7/CDK12 [2] | IC50 [2, 6] | Cyclin K Degrader Activity (A673 potency shift + MLN4924) [3] | Ratio of Biochemical Potency:Cellular Potency [4] | IC50 [4, 7] | IC50 [4, 8]
CC(C)c1cnn2c(NCc3ccc(-c4ccccc4)cc3)cc(NC[C@H]3CCNC[C@@H]3O)nc12 [PPA-004, (3R,4R)-4-(((7-(([1,1′-biphenyl]-4-ylmethyl)amino)-3-isopropylpyrazolo[1,5-a]pyrimidin-5-yl)amino)methyl)piperidin-3-ol] | 576 nM | 143 nM | 4.0 | 143 nM | +++ (>5 fold change.) | 22.70 | 6.3 nM | 6.3 nM
O[C@H]1CNCC[C@@H]1CNc1cc(NCc2ccc(-n3cccn3)cc2)n2ncc(C3CC3)c2n1 [PPA-009] | 212 nM | 55 nM | 3.9 | 55 nM | ++ (>2 and ≤5 fold change.) | 42.31 | 1.3 nM | 1.3 nM
O[C@H]1CNCC[C@@H]1CNc1cc(NCc2ccc(-c3nccs3)cc2)n2ncc(C3CC3)c2n1 [PPA-018] | 106 nM | 39 nM | 2.7 | 39 nM | +++ (>5 fold change.) | 43.33 | 0.9 nM | 0.9 nM
O[C@H]1CNCC[C@@H]1CNc1cc(NCc2ccc(-c3ncccn3)cc2F)n2ncc(C3CC3)c2n1 [PPA-067] | 562 nM | 65 nM | 8.6 | 65 nM |  | 25.00 | 2.6 nM | 2.6 nM
CCc1cnn2c(NCc3ccc(-c4ccccn4)cc3F)cc(NC[C@H]3CCNC[C@@H]3O)nc12 [PPA-068] | 323 nM | 42 nM | 7.7 | 42 nM |  | 28.00 | 1.5 nM | 1.5 nM
F[C@@H]1CNC[C@H]1Oc1cc(NCc2ccc(-c3ccccn3)cc2)n2ncc(C3CC3)c2n1 [PPA-073] | 529 nM | 33 nM | 16.0 | 33 nM |  | 1.72 | 19.2 nM | 19.2 nM
O[C@H]1CNCC[C@@H]1CNc1cc(NCc2ccc(-c3ccccn3)cc2F)n2ncc(Cl)c2n1 [PPA-074] | 350 nM | 23 nM | 15.2 | 23 nM |  | 32.86 | 0.7 nM | 0.7 nM
O=C1C[C@H](Nc2cc(NCc3ccc(-c4ccccn4)cc3)n3ncc(C4CC4)c3n2)CN1 [PPA-075] | 4720 nM | 145 nM | 32.6 | 145 nM |  | 25.44 | 5.7 nM | 5.7 nM
O[C@H]1CNCC[C@@H]1CNc1cc(NCc2c(F)cc(-c3ccccc3)cc2F)n2ncc(C3CC3)c2n1 [PPA-076] | 2250 nM | 1490 nM | 1.5 | 1490 nM |  | <14.9 | > 100 nM | > 100 nM
c1ccc(-c2ccc(CNc3cc(N4CCNC5(CC5)C4)nc4c(C5CC5)cnn34)cc2)nc1 [PPA-077] | 1390 nM | 41 nM | 33.9 | 41 nM |  | 5.47 | 7.5 nM | 7.5 nM
N[C@H]1CC(=O)N(c2cc(NCc3ccc(-c4ccccn4)cc3)n3ncc(C4CC4)c3n2)C1 [PPA-078] | 6240 nM | 593 nM | 10.5 | 593 nM |  | 19.64 | 30.2 nM | 30.2 nM
c1ccc(-c2ccc(CNc3cc(-c4ccn[nH]4)nc4c(C5CC5)cnn34)cc2)nc1 [PPA-079] | > 30000 nM | 1190 nM |  | 1190 nM |  | <11.9 | > 100 nM | > 100 nM
N#Cc1cnn2c(NCc3ccc(-c4ccccc4)cc3)cc(NC[C@H]3CCNC[C@@H]3O)nc12 [PPA-081] | 344 nM | 57 nM | 6.0 | 57 nM |  | 7.50 | 7.6 nM | 7.6 nM
CCc1cnn2c(NCc3ccc(-c4ccccc4)cc3)cc(NC[C@H]3CCNC[C@@H]3O)nc12 [PPA-082] | 125 nM | 44 nM | 2.8 | 44 nM |  | 4.58 | 9.6 nM | 9.6 nM
O[C@H]1CNCC[C@@H]1CNc1cc(NCc2ccc(-c3ccccc3)cc2)n2ncc(Cl)c2n1 [PPA-083] | 118 nM | 32 nM | 3.7 | 32 nM |  | 7.11 | 4.5 nM | 4.5 nM
c1ccc(-c2ccc(CNc3cc(N4CC5(CNC5)C4)nc4c(C5CC5)cnn34)cc2)nc1 [PPA-084] | 14000 nM | 1120 nM | 12.5 | 1120 nM |  | 15.28 | 73.3 nM | 73.3 nM
N#Cc1cnn2c(NCc3ccc(-c4ncccn4)cc3)cc(N[C@H]3CCCNC3)nc12 [PPA-094] |  |  |  |  | +++ (>5 fold change.) |  | 0.9 nM | 1.9 nM
Cc1n[nH]cc1-c1cc(NCc2ccc(-c3ccccn3)cc2)n2ncc(C3CC3)c2n1 [PPA-095] |  |  |  |  | + (>1 and ≤2 fold change.) |  | 43.5 nM | 4.7 nM
Cc1ncccc1-c1cc(NCc2ccc(-c3ccccn3)cc2)n2ncc(C3CC3)c2n1 [PPA-096] |  |  |  |  | +++ (>5 fold change.) |  | 14.9 nM | 7.6 nM
c1cnn(-c2ccc(CNc3cc(OC4CNC4)nc4c(C5CC5)cnn34)cc2)c1 [PPA-097] |  |  |  |  | +++ (>5 fold change.) |  | 3.5 nM | 0.4 nM
c1csc(-c2ccc(CNc3cc(N[C@H]4CCNC4)nc4c(C5CC5)cnn34)cc2)n1 [PPA-098] |  |  |  |  | +++ (>5 fold change.) |  | 8.1 nM | 3.2 nM
c1cnn(-c2ccc(CNc3cc(N[C@H]4CCCNC4)nc4c(C5CC5)cnn34)cc2)c1 [PPA-099] |  |  |  |  | ++ (>2 and ≤5 fold change.) |  | 1.2 nM | 0.9 nM
c1ccc(-c2ccc(CNc3cc(C4CCNCC4)nc4c(C5CC5)cnn34)cc2)nc1 [PPA-100] |  |  |  |  | +++ (>5 fold change.) |  | 1.5 nM | 43.5 nM
